What follows are molecules tested on Oct4 promoter (assay: Luciferase reporter gene assay of derivatives on Oct4 expression (co-transfection with pCMV-β-gal) in P19 cells). Conditions: 5 μg/mL, 12-24 h, DMSO control, FIG. 6.
Format: cell-based, mouse
Protocol: The effect of derivatives of ethyl p-methoxycinnamate on Oct4 expression was assayed by a luciferase reporter gene method, the derivatives including diethyl 4-methoxybenzalmalonate, ethyl 3-(3-methoxy-4-methoxycarbonylmethoxyphenyl)acrylate, diethyl 4-acetoxybenzylidenemalonate, chlorogenic acid, ethyl cinnamate, 3-cinnamoyloxypropyl 3-propylacrylate, ethyl 2-cyano-3,3-diphenylacrylate, ethyl 2,6-dichlorocinnamate, diethyl 4-chlorobenzylidenemalonate, ethyl 4-aminocinnate, ethyl 3-cyanocinnamate, ethyl 4-nitrocinnamate, 3-[3-(4-methoxyphenyl)acryloyloxymethyl]benzyl 3-(4-methoxyphenyl)acrylate, 4-[3-(4-methoxyphenyl)acryloyloxy]butyl-2-ynyl 3-(4-methoxyphenyl)acrylate, ethyl indole-2-carboxylate, and ethyl 6-methoxy-1-benzofuran-2-carboxylate.
One day before transfection, mouse teratoma cells P19 were inoculated into a 24-well cell culture plate at a density of 1×10^5 cells/well, to make the cells grown to about 80% before transfection. A liposomal transfection reagent Entranster™-D from Engreen company was used to perform the transfection according to the instructions, to co-transfect the P19 cells with target plasmid (PGL3-Oct4P-Basic or pGL3-Basic) and reference plasmid (pCMV-β-gal). The total amount of the plasmid used for transfection was 1 μg/well (the target plasmid:the reference plasmid=2:1). The plasmid was added to 25 μL of serum-free DMEM culture medium, and fully mixed. 3 μL of the transfection reagent was then added to another 25 μL of serum-free DMEM culture medium, mixed well, and allowed to stand for 5 min. The DMEM culture medium containing the transfection reagent was then added to the DMEM culture medium containing the plasmid, and the mixture was immediately pipetted more than 10 times, and allowed to stand at room temperature for 30 min. 250 μL of DMEM culture medium containing 10% fetal calf serum was added to the mixed solution, and gently mixed well. The original cell culture medium in the 24-well plate was discarded, and replaced with the above mixed solution. After being cultured for 4-6 h in a 5% CO2 cell incubator at 37° C., the original culture medium was absorbed and removed, and replaced with 500 μL of DMEM culture medium containing 10% fetal calf serum. […] After subsequent continuous culture for 12-24 h, the cells were lysed, and the luciferase activity was assayed.
Luciferase Reporter Assay System and FluoStar Optima were used to assay the luciferase activity of the transfected cell lysis solution. To 45 μL of the cell lysis solution was added 5 μL of Assay Cocktail reagent, after they were mixed well, 100 μL of Luciferin reaction solution was added, and fluorescence counting in 2 s was measured using FluoStar Optima instrument, which reflected the activity level of the studied plasmid reporter genes expressing firefly luciferase. To another 20 μL of the cell lysis solution was added 37.5 μL of β-gal Buffer followed by 12.5 μL of ONPG (6 mg/mL), and after they were mixed well, they were allowed to stand at 37° C. for 30 min. An absorption value at 450 nm was assayed using a microplate reader, which reflected the activity level of internal reference plasmid pCMV-β-gal expressing β-galactosidase. The ratio between the activity of the firefly luciferase and the activity of the β-galactosidase (β-gal) excluded the difference of the sample transfection efficiency, and could relatively objectively reflect the difference of promoter activity between samples. The relative luciferase activity of different samples was calculated through the following equation: […]

Compound | effect of derivatives on the activity of the Oct4 promoter (relative luciferase activity)
COc1ccc(C=CC(=O)OCC#CCOC(=O)C=Cc2ccc(OC)cc2)cc1 [4-[3-(4-methoxyphenyl)acryloyloxy]butyl-2-ynyl 3-(4-methoxyphenyl)acrylate] | have the effect of enhancing the activity of the Oct4 promoter
CCOC(=O)c1cc2ccccc2[nH]1 [ethyl indole-2-carboxylate] | have the effect of enhancing the activity of the Oct4 promoter
CCCC=CC(=O)OCCCOC(=O)C=Cc1ccccc1 [3-cinnamoyloxypropyl 3-propylacrylate] | have the effect of enhancing the activity of the Oct4 promoter
CCOC(=O)C(C#N)=C(c1ccccc1)c1ccccc1 [ethyl 2-cyano-3,3-diphenylacrylate] | have the effect of enhancing the activity of the Oct4 promoter
CCOC(=O)C=Cc1ccccc1 [ethyl cinnamate] | have the effect of enhancing the activity of the Oct4 promoter
CCOC(=O)C(=Cc1ccc(OC(C)=O)cc1)C(=O)OCC [diethyl 4-acetoxybenzylidenemalonate] | have the effect of enhancing the activity of the Oct4 promoter
O=C(/C=C/c1ccc(O)c(O)c1)O[C@@H]1C[C@](O)(C(=O)O)C[C@@H](O)[C@H]1O [chlorogenic acid] | have the effect of enhancing the activity of the Oct4 promoter
COc1ccc(C=CC(=O)OCc2cccc(COC(=O)C=Cc3ccc(OC)cc3)c2)cc1 [3-[3-(4-methoxyphenyl)acryloyloxymethyl]benzyl 3-(4-methoxyphenyl)acrylate] | have the effect of enhancing the activity of the Oct4 promoter
